# In US20040162247A1, “Therapeutic agent or osteoporosis comprising an active ingredient of quercetin derivatives” (priority 2000, published 2004):
# Legend:
# [1] = test system: human osteoblast-like cell line Saos-2; assay: Cell proliferation of Saos-2 cells, MTT method; format: cell-based; conditions: Saos-2, 3 days
# Protocol: Saos-2 cell line which has similar properties to osteoblasts was obtained from Korean Cell Line Bank affiliated to the Cancer Research Institute of School of Medicine, Seoul National University.
# Saos-2 cells were seeded in a RPMI 1640 medium (Gibco BRL, U.S.A.) supplemented with 10% (v/v) FBS, 100 unit/ml penicillin, 100 gg/ml streptomycin and grown to form a monolayer in an incubator at 37° C. under an environment of 5% (v/v) CO2 and saturated humidity. The culture was fed with fresh medium 2 to 3 times a week and subcultured once a week using 0.25% (w/v) trypsin.
# Saos-2 cells were distributed into a 96-well plate (20,000 cells/well) and quercetin in 1% DMSO was added to a final concentration of 10-2 to 10^−9 mg/ml, 6 wells per each concentration. As a control group, cells without quercetin were used, and as a comparative group, the cells treated with various concentrations of genistein, being studied as a therapeutic agent for osteoporosis, were used. Cells were grown in an incubator at 37° C. for 3 days and incubated 4 more hours under the same condition after adding MTT (3-[4,5-dimethylthiazol-2-yl]-2,5-diphenyltetrazolium bromide, Triazolyl Blue) to a concentration of 0.05 mg/ml. Then, purple colored for-mazan formed in proportion to the number of viable cells was dissolved in DMSO and measured OD at 550 nm employing ELISA reader.
# Cell proliferation rate (%) was evaluated by calculating the ratio of the OD of quercetin added well to the OD of control well, wherein, average value of ODs from 6 wells treated with the same concentration of quercetin was employed (see: Table 1).
# cell proliferation rate (%)={(average value of OD at 550 nm of quercetin-treated wells—average value of OD at 550 nm of empty wells)/average value of OD at 550 nm of control wells}×100
# [2] = test system: ALP activity in osteoblasts (Saos-2); assay: Alkaline phosphatase (ALP) activity in osteoblasts; format: cell-based, human; conditions: Saos-2, 3 days
# Protocol: Since osteoblasts have cell specific alkaline phosphatase activity, the effect of quercetin of the invention on ALP activity in osteoblasts was evaluated as follows: the number of cells, concentration of tested agent, and culture condition were same as those used in MTT experiment of Example 1-2, and cells were harvested after 3 day-incubation. Genistein was used as a comparative agent. ALP activity was evaluated by analysing changes of OD at 405 nm result from hydrolysis of p-nitrophenylphosphate to p-nitrophenol and phosphate (see: Table 1).
# ovariectomized rats [3] = assay: Trabecular bone area of tibia in ovariectomized rats;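 as to Change Rate (%) of TBA of tibia, of control group: control group rats were ovariectomized and are not the sham group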; format: in vivo, Female SD (Sprague-Dawley) rats; conditions: OVX rats, 9 weeks i.p. (E2 1 μg/kg/day; quercetin, genistein 10 mg/kg/day); for Change Rate (%) of TBA of tibia, of control group: control group = 100
# Protocol: (§1) Trabecular bone area (TBA) of lumbar and tibia removed from the rats of each group which was treated with various agents for 9 weeks were measured as follows: that is, using a digitalizer of quantitative image analysis system (Wild Leitz Co.), image of each trabecula was obtained on computer monitor by drawing a contour of the trabecula, and then, using a computer, calculated were average areas of trabeculae within a rectangle of 2×10^6 μm^2 area wherein the width is about ⅔ of the length of growth plate which located underneath of growth plate at proximity of tibia. Also, following the number of trabeculae within the rectangle were obtained, average area was multiplied by the number of trabeculae to obtain trabecular bone area of each sample bone, which was analyzed statistically (see: Table 5).
# ovariectomized rats [4] = assay: Trabecular bone area of lumbars in ovariectomized rats;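 as to Change Rate (%) of TBA of lumbars, of control group: control group rats were ovariectomized and are not the sham group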; format: in vivo, Female SD (Sprague-Dawley) rats; conditions: OVX rats, 9 weeks i.p. (E2 1 μg/kg/day; quercetin, genistein 10 mg/kg/day); for Change Rate (%) of TBA of lumbars, of control group: control group = 100
# Protocol: as §1
# TBAs of lumbars removed from the animal treated with test agents for 9 weeks were measured employing the same method above (see: Table 6).
# ovariectomized rats [5] = assay: Complete blood count in ovariectomized rats; format: in vivo, Female SD (Sprague-Dawley) rats
# Protocol: (§2) When test agents were administered, for a certain period of time before and after administration, 1.5 ml of blood was sampled from tail vein using a catheter (B.D Co.: 24 G) and subjected to complete blood count (Coulter Co.: JT) and biochemical analyses of plasma (Crone Co.: Airon® 200). During autopsy, blood was sampled from caudal venae cavae and subjected to the analyses above. And then, each sample was frozen to store for measurement of trabecular bone area of femur and examination of internal organs.
# Complete blood count which reflects the condition and abnormality of the body was measured to find out abnormality in test animals caused by administrtion of agents. That is, to find out changes in hematopoiesis of test rats, measured were red blood cell (RBC) count, concentration of hemoglobin (Hb) and hematocrit (Ht) of-blood samples obtained from the rats prior to operation and the rats 10 weeks after administrating agents following operation, and to find out changes in immune system such as inflammation and necrosis of tissues, measured were white blood cell count, lymphocyte count, monocyte count, and granulocyte count (see: Table 7).
# ovariectomized rats [6] = assay: Biochemical parameters in plasma of ovariectomized rats; format: in vivo, Female SD (Sprague-Dawley) rats
# Protocol: as §2
# Since blood reflects the condition of body, safety of quercetin in the body was evaluated by measuring biochemical parameters: that is, blood samples were obtained from the rat prior to operation, one week after operation, and 10 weeks after operation, and measured were levels of alkaline phosphatase (ALP), calcium, inorganic phosphate, blood urea nitrogen (BUN), creatinin, total cholesterol, HDL-cholesterol and LDL-cholesterol (see: Table 8).
# [7] = after operation and drug administration (E2 1 μg/kg/day; quercetin, genistein 10 mg/kg/day i.p.)
# [8] = 1 week after operation (start of administration)
# [9] = 10 weeks after operation, 9 weeks i.p. (E2 1 μg/kg/day; quercetin, genistein 10 mg/kg/day)
compound,measurement,setting,value
"O=c1c(-c2ccc(O)cc2)coc2cc(O)cc(O)c12 [Genistein, genistein]",MTT assay (% of control group),[1]; 1 × 10^−2 mg/ml,66.2 ± 2.8 % of control group
same,MTT assay (% of control group),"[1]; 1 × 10^−2 mg/ml, listed as genistein",66 % of control group
same,MTT assay (% of control group),[1]; 1 × 10^−3 mg/ml,85.5 ± 1.1 % of control group
same,MTT assay (% of control group),"[1]; 1 × 10^−3 mg/ml, listed as genistein",86 % of control group
same,MTT assay (% of control group),[1]; 1 × 10^−4 mg/ml,95.7 ± 0.7 % of control group
same,MTT assay (% of control group),[1]; 1 × 10^−5 mg/ml,97.3 ± 1.6 % of control group
same,MTT assay (% of control group),[1]; 1 × 10^−6 mg/ml,90.5 ± 0.9 % of control group
same,MTT assay (% of control group),"[1]; 1 × 10^−6 mg/ml, listed as genistein",90.5 % of control group
same,MTT assay (% of control group),[1]; 1 × 10^−7 mg/ml,95.9 ± 1.6 % of control group
same,MTT assay (% of control group),[1]; 1 × 10^−8 mg/ml,96.9 ± 2.7 % of control group
same,MTT assay (% of control group),[1]; 1 × 10^−9 mg/ml,91.3 ± 0.6 % of control group
same,MTT assay (% of control group),"[1]; 1 × 10^−9 mg/ml, listed as genistein",91 % of control group
same,ALP activity (% of control group),[2]; 1 × 10^−2 mg/ml,62.3 ± 3.4 % of control group
same,ALP activity (% of control group),[2]; 1 × 10^−3 mg/ml,98.8 ± 6.9 % of control group
same,ALP activity (% of control group),[2]; 1 × 10^−4 mg/ml,121.1 ± 6.2 % of control group
same,ALP activity (% of control group),"[2]; 1 × 10^−4 mg/ml, listed as genistein",121 % of control group
same,ALP activity (% of control group),[2]; 1 × 10^−5 mg/ml,113.5 ± 7.3 % of control group
same,ALP activity (% of control group),[2]; 1 × 10^−6 mg/ml,103.8 ± 8.7 % of control group
same,ALP activity (% of control group),[2]; 1 × 10^−7 mg/ml,109.3 ± 9.6 % of control group
same,ALP activity (% of control group),[2]; 1 × 10^−8 mg/ml,101.5 ± 8.8 % of control group
same,ALP activity (% of control group),[2]; 1 × 10^−9 mg/ml,106.1 ± 6.4 % of control group
same,TBA (trabecular bone area) of tibia,ovariectomized rats [3],47.65 ± 2.07 ×10^4 μm^2
same,"Change Rate (%) of TBA of tibia, of control group",ovariectomized rats [3],137.62 ± 5.98%
same,"Change Rate (%) of TBA of tibia, of control group",ovariectomized rats [3]; listed as genistein,138%
same,TBA (trabecular bone area) of lumbars,ovariectomized rats [4],86.58 ± 3.00 ×10^4 μm^2
same,"Change Rate (%) of TBA of lumbars, of control group",ovariectomized rats [4],128.23 ± 4.45 %
same,"Change Rate (%) of TBA of lumbars, of control group",ovariectomized rats [4]; listed as genistein,128%
same,"White blood cell count, before versus after operation (in words)",ovariectomized rats [5]; OVX rats after drug administration,did not show any changes
same,Concentration of hemoglobin(Hb),ovariectomized rats [5]; [7],14.70 ± 0.22 g/dL
same,Granulocyte count,ovariectomized rats [5]; [7],2.38 ± 0.37 ×10^3 cells/μl
same,Hematocrit(Ht),ovariectomized rats [5]; [7],40.66 ± 0.56 %
same,Lymphocyte count,ovariectomized rats [5]; [7],15.25 ± 3.21 ×10^3 cells/μl
same,Monocyte count,ovariectomized rats [5]; [7],0.80 ± 0.19 ×10^3 cells/μl
same,Red blood cell(RBC) count,ovariectomized rats [5]; [7],7.17 ± 0.13 ×10^6 cells/μl
same,White blood cell count,ovariectomized rats [5]; [7],21.50 ± 2.53 ×10^3 cells/μl
same,Concentration of hemoglobin(Hb),ovariectomized rats [5]; before operation (baseline),15.82 ± 0.27 g/dL
same,Granulocyte count,ovariectomized rats [5]; before operation (baseline),2.23 ± 0.10 ×10^3 cells/μl
same,Hematocrit(Ht),ovariectomized rats [5]; before operation (baseline),42.76 ± 0.65%
same,Lymphocyte count,ovariectomized rats [5]; before operation (baseline),19.68 ± 4.52 ×10^3 cells/μl
same,Monocyte count,ovariectomized rats [5]; before operation (baseline),0.77 ± 0.09 ×10^3 cells/μl
same,Red blood cell(RBC) count,ovariectomized rats [5]; before operation (baseline),7.32 ± 0.13 ×10^6 cells/μl
same,White blood cell count,ovariectomized rats [5]; before operation (baseline),27.30 ± 4.85 ×10^3 cells/μl
same,Concentration of ALP in plasma,ovariectomized rats [6]; [8],212.10 ± 17.92 U/dL
same,Concentration of HDL-cholesterol in plasma,ovariectomized rats [6]; [8],35.26 ± 1.92 mg/dL
same,Concentration of LDL-cholesterol in plasma,ovariectomized rats [6]; [8],60.47 ± 7.04 mg/dL
same,Concentration of blood urea nitrogen (BUN),ovariectomized rats [6]; [8],18.26 ± 0.94 mg/dL
same,Concentration of calcium in plasma,ovariectomized rats [6]; [8],8.97 ± 0.29 mg/dL
same,Concentration of creatinin in plasma,ovariectomized rats [6]; [8],0.64 ± 0.02 mg/dL
same,Concentration of inorganic phosphate in plasma,ovariectomized rats [6]; [8],6.47 ± 0.16 mg/dL
same,Concentration of total cholesterol in plasma,ovariectomized rats [6]; [8],91.56 ± 3.65 mg/dL
same,Concentration of ALP in plasma,ovariectomized rats [6]; [9],127.14 ± 9.95^##$$ U/dL
same,Concentration of HDL-cholesterol in plasma,ovariectomized rats [6]; [9],29.27 ± 1.98 mg/dL
same,Concentration of LDL-cholesterol in plasma,ovariectomized rats [6]; [9],91.80 ± 6.57^##$$ mg/dL
same,Concentration of blood urea nitrogen (BUN),ovariectomized rats [6]; [9],18.31 ± 0.86 mg/dL
same,Concentration of calcium in plasma,ovariectomized rats [6]; [9],10.44 ± 0.22^$ mg/dL
same,Concentration of creatinin in plasma,ovariectomized rats [6]; [9],0.82 ± 0.04^##$ mg/dL
same,Concentration of inorganic phosphate in plasma,ovariectomized rats [6]; [9],5.62 ± 0.25 mg/dL
same,Concentration of total cholesterol in plasma,ovariectomized rats [6]; [9],121.07 ± 6.53 mg/dL
same,Level of inorganic phosphate 10 weeks after operation versus prior to operation (in words),"ovariectomized rats [6]; OVX rats, 10 mg/kg/day i.p.",remarkably decreased
same,Plasma ALP activity 10 weeks after operation versus prior to and one week after operation (in words),"ovariectomized rats [6]; OVX rats, 10 mg/kg/day i.p.",significant decrease of ALP activity
same,Concentration of ALP in plasma,ovariectomized rats [6]; before operation (baseline),208.86 ± 19.72 U/dL
same,Concentration of HDL-cholesterol in plasma,ovariectomized rats [6]; before operation (baseline),61.12 ± 3.57 mg/dL
same,Concentration of LDL-cholesterol in plasma,ovariectomized rats [6]; before operation (baseline),24.39 ± 3.63 mg/dL
same,Concentration of blood urea nitrogen (BUN),ovariectomized rats [6]; before operation (baseline),16.82 ± 0.60 mg/dL
same,Concentration of calcium in plasma,ovariectomized rats [6]; before operation (baseline),10.61 ± 0.49 mg/dL
same,Concentration of creatinin in plasma,ovariectomized rats [6]; before operation (baseline),0.51 ± 0.04 mg/dL
same,Concentration of inorganic phosphate in plasma,ovariectomized rats [6]; before operation (baseline),7.18 ± 0.48 mg/dL
same,Concentration of total cholesterol in plasma,ovariectomized rats [6]; before operation (baseline),85.51 ± 5.45 mg/dL
